Results on three compounds are retold here after patent publication US20190160093A1, “THERAPEUTIC AGENT FOR DISEASE ACCOMPANIED BY EPILEPTIC WAVES” (TAIYO NIPPON SANSO CORPORATION, priority 2010, published 2019).

Series [1] can be described thus: Blood pH and blood gas of GRY rats placed in gas containing carbon dioxide or oxygen. The format is in vivo, rat. The procedure:
In order to control a concentration of carbon dioxide, multi-gas incubator (MCO-5M; Sanyo Electric Co., Ltd.) was used as a multi-gas concentration control apparatus to adjust the concentration of carbon dioxide in the incubator. A concentration of oxygen was also adjusted for comparison. Main components of the normal dry air are 0.032% (v/v) of carbon dioxide, 20.946% (v/v) of oxygen, and 78.084% (v/v) of nitrogen. Therefore, using the above-described multi-gas concentration control apparatus, the concentration of carbon dioxide was set to 5% (v/v), 7% (v/v), or 10% (v/v), or the concentration of oxygen was set to 17% (v/v). When the concentration of carbon dioxide was adjusted, carbon dioxide gas supplied from a carbon dioxide gas bottle connected to the apparatus was diluted with the air outside. Therefore, carbon dioxide=10% (v/v), oxygen=about 18.85% (v/v), and nitrogen=about 70.28% (v/v). When the concentration of oxygen was set to 17% (v/v), similarly, the concentration was adjusted using nitrogen gas supplied from a nitrogen gas bottle connected to the apparatus. Therefore, carbon dioxide=0.026% (v/v), oxygen=about 17% (v/v), and nitrogen=about 82.974% (v/v). It was confirmed using a gas analyzer AGA-2008 (Astec Co. Ltd.) that each concentration in the incubator was correct under the set conditions.
The surgery of embedding an electrode for measurement of electroencephalograms was performed to eight male GRY rats (9 weeks old). After a one-week recovery period, the GRY rats were placed for one hour in the multi-gas concentration control apparatus adjusted to a concentration of carbon dioxide of 5% (v/v), 7% (v/v), or 10% (v/v), or a concentration of oxygen of 17% (v/v).
Blood samples were collected from the tail vein of the rats placed in the multi-gas concentration control apparatus, and the blood pH and the blood concentration of carbon dioxide were measured using an i-STAT analyzer (Fuso Pharmaceutical Industries, Ltd.) as a blood gas analyzer.
Carbon dioxide or oxygen was administered to rats by placing the rats in the multi-gas concentration control apparatus adjusted to a concentration of carbon dioxide of 10% (v/v) or a concentration of oxygen of 17% (v/v) for 15 minutes, 30 minutes, 45 minutes, or 60 minutes (5-6 rats for each). Rats placed in the multi-gas concentration control apparatus adjusted to a concentration of the normal air were used as a control.

Series [2] has as its system epileptic model rat (GRY rat). Briefly: Electroencephalogram spike index of epileptic model rat (GRY rat). Conditions: GRY rats. The series is classed as in vivo. The source says:
In the present Example, a GRY rat (groggy rat, Cacnala) was used as an epileptic model rat. A GRY rat constantly develops an epileptic seizure in normal conditions, and therefore is an extremely excellent system to evaluate a seizure by subjecting the GRY rat to a treatment. The GRY rat has a mutation in an al subunit of a P/Q-type voltage-dependent calcium channel Cav2.1 which encodes Cacnala gene, and is an epileptic model rat which mainly develops ataxia and absence seizure. The GRY rat takes a mode of autosomal recessive inheritance. The 752nd nucleotide “T” of the Cacnala gene has mutated to “A”. As a result, a codon “ATG” to specify methionine which is the 251st amino acid has mutated to a codon “AAG” to specify lysine (M251K). It has been reported that this mutation is located at extracellular p-loop forming a pore of a calcium channel domain 1 and that this mutation (M251K) results in abnormality of a function of the voltage-dependent calcium ion channel Cav2.1 of the rat (Reference Literatures 1 and 2). The GRY rats with this mutation show extension abnormalities of hind limbs, walking abnormalities, and ataxia, and a seizure which is accompanied with spike and wave discharges of 7-8 Hz on the electroencephalograms from 6-8 weeks of age. The present model rats were dispensed from Institute of Laboratory Animals, Graduate School of Medicine, Kyoto University.
Male GRY rats were anesthetized by administering 35 mg/kg of pentobarbital sodium (Nembutal, Sumitomo Dainippon Pharma Co. Ltd.) intraperitoneally, and were fixed to a brain stereotaxic fixing apparatus (SR-5M, NARISHIGE Group). The head was shaved, the skin was incised along the median line, and the skull was exposed. A small hole was opened on the frontal lobe cortex and the occipital lobe cortex on both sides using a dental drill (FALCON, Morita Corporation). A stainless steel screw electrode (FUKUOKA RASHI) having a diameter of 0.9 mm and a length of 1.7 mm and connected a stainless steel wire having a diameter of 0.2 mm (M T Giken) was embedded in the hole (refer to FIG. 1). A screw electrode was embedded in the root of nose as a Z electrode, and a screw electrode was embedded in the cerebellum as an indifferent electrode. Each electrode was connected to a connector socket (Hirose Electric Co. Ltd.), and fixed to the skull with dental cement (Uni Fast II, GC Dental Products).
The rats placed in the multi-gas concentration control apparatus adjusted to a concentration of carbon dioxide of 5% (v/v), 7% (v/v), or 10% (v/v) were subjected to simultaneous video-electroencephalographic recording. Rats placed in the air were used as a control.
Electroencephalograms of the frontal lobe cortex and the occipital lobe cortex of the rats were measured using an electroencephalograph (Neurofax EEG-1200, NIHON KOHDEN CORPORATION). A spike index was used as an index of evaluation of a seizure. The spike index represents a ratio of duration of a spike in measurement time (15 minutes). The spike means a waveform indicating a sharp change in potential in a short time (refer to FIG. 3).
Carbon dioxide was administered to rats by placing the rats in the multi-gas concentration control apparatus adjusted to a concentration of carbon dioxide of 10% (v/v) (9 rats).
By placing the rats in the multi-gas concentration control apparatus, the rats were administered with 10% (v/v) carbon dioxide, and subjected to simultaneous video-electroencephalographic recording every 15 minutes for one hour, and an effect of suppressing an epileptic seizure (spike index) was measured before and after the administration of carbon dioxide.
Next, electroencephalograms were measured.

Series [3] is described as follows: Blood pH of Kyo811 rats after febrile seizures and carbon dioxide. The series is classed as in vivo, rat. The note with it: Kyo811 rats after febrile seizures, carbon dioxide 10% (v/v). The procedure: Immediately after the seizure was induced, the rats were placed in the multi-gas concentration control apparatus adjusted to the concentration of carbon dioxide of 10% (v/v) or the concentration of the normal air, and the situation of the seizure was observed while electroencephalograms were measured continuously.
As a control, the blood pH of the rats (10 rats) before induction of febrile seizures was measured. As a result, it was confirmed that the increase in the concentration of carbon dioxide to 10% (v/v) reduced the blood pH of the rats (FIG. 14).

In series [4] the test system is epileptic model rat (Kyo811 rat). Briefly: Electroencephalogram and seizure duration of Kyo811 rats with febrile seizures induced by thermal load. The series is classed as in vivo. The note with it: febrile seizures by warm bath at 45° C., carbon dioxide 10% (v/v) vs normal air. The source says:
In epilepsy, about 80% of patients of intractable Dravet syndrome (formerly, referred to as Severe Myoclonic Epilepsy in Infancy: SMEI), and about 5-10% of patients of benign generalized epilepsy with febrile seizure plus: GEFS+) have missense mutations in a voltage-dependent sodium channel a subunit type 1 (SCN1A) gene. Therefore, it is considered that the mutations in the SCN1A gene are involved in development of febrile seizures (Reference Literatures 3 and 4). In the present Reference Example, using the Kyo811 rats having a mutation in the Scn1a gene as a genetic factor, suppressive effect of seizure by carbon dioxide was examined. This rat is a febrile seizure model rat which induces febrile seizures by a thermal load, and a GEFS+ model rat.
A Kyo811 rat was prepared as a rat with a mutation in the voltage-dependent sodium channel Scn1a gene by the following technology. […]
After a one-week recovery period, the rats were put into a warm bath at 45° C. for about 3-4 minutes to induce febrile seizures, and electroencephalograms were measured.
Immediately after the seizure was induced, the rats were placed in the multi-gas concentration control apparatus adjusted to the concentration of carbon dioxide of 10% (v/v) or the concentration of the normal air, and the situation of the seizure was observed while electroencephalograms were measured continuously. […]

The subject of another series is 8-11 days-old rats. Conditions: rats in a chamber containing 5% carbon dioxide; cited from earlier work.
For series [5] the following is noted: cited from earlier work.
The nature of series [6]: Blood concentration, blood pH and blood bicarbonate ion after acetazolamide in GRY rats.
Setting [7] is: concentration of oxygen 17% (v/v), one hour.
Setting [8] is: 10% (v/v) carbon dioxide for 15 to 60 minutes.
The mark [9] stands for this setting: carbon dioxide 5% (v/v), 7% (v/v) or 10% (v/v), one hour.
Setting [10] is: 50 mg/kg intraperitoneally, 15, 30, 45 and 60 minutes after the administration, saline control.

Like-named read-outs stand apart in the source and are kept apart here.

As for `O=O` [oxygen, reference compound], in series [1] (setting [7]), the “blood concentration of carbon dioxide” value is reported as “reduced” and the “blood pH” value is “increased”.
For the compound `O=C=O` [carbon dioxide], the “blood concentration of carbon dioxide” value in series [1] (setting [8]) and in series [1] (setting [9]) was “increased” throughout. Moreover, the “blood pH” value is “reduced” in series [1] (setting [8]), “reduced” in series [1] (setting [9]), 7.27 in series [1] (environment of 10% (v/v) carbon dioxide) and “reduced” in series [3]. Moreover, the “time the effect of suppressing a seizure lasts after the administration” value in series [2] (10% (v/v) carbon dioxide) is at least 30 min. For the same compound, the “average spike index (spike index for 15 minutes before administration assumed to be 1)” value in series [2] (10% (v/v) carbon dioxide, 0-15 minutes) turned out to be 0.0074; in series [2] (10% (v/v) carbon dioxide, 16-30 minutes), 0.054; in series [2] (10% (v/v) carbon dioxide, 31-45 minutes), 0.275; in series [2] (10% (v/v) carbon dioxide, 46-60 minutes), 0.416. Also, the “effect of suppressing a seizure” value in series [2] (10% (v/v) carbon dioxide, 15 minutes after the administration) was “suppress a seizure almost completely”. The “epileptiform discharges, duration of a spike” value in series [2] (10% (v/v) carbon dioxide, five minutes from 25 seconds after starting vs five minutes before administration) was “suppressed significantly”; in series [2] (carbon dioxide 7% (v/v) or 10% (v/v), control rats in the air) it was “suppressed significantly”; in series [4], “suppressed significantly”. Also, the “seizure duration (second)” value in series [4] is “suppressed significantly”. Further, the “alkalosis in the brain” value in the series on 8-11 days-old rats is reported as “can be suppressed”. In addition, the “effect of carbon dioxide gas in the air” value in series [5] (concentration of 1 to 2% (v/v)) is “causes discomfort”; in series [5] (concentration of 3 to 4% (v/v)), “stimulates the respiratory center”; in series [5] (concentration of 6 to 7% (v/v)), “makes breathing difficult”; in series [5] (concentration of 7 to 10% (v/v)), “causes unconsciousness in a few minutes”.
`CC(=O)Nc1nnc(S(N)(=O)=O)s1` [acetazolamide, Acetazolamide]: the “spike duration of a seizure” value in series [2] (acetazolamide 50 mg/kg intraperitoneally, vs non-administration group) is given as “significantly suppresses”. Moreover, the “time after administration of highest blood concentration of acetazolamide” value in series [6] (50 mg/kg intraperitoneally) was determined as 15 min. Besides, in series [6] (setting [10]), the “blood bicarbonate ion as compared with the control group” value is “significantly low” and the “blood pH as compared with the control group” value is “significantly low”. Besides, the “blood pH” value in series [6] (30 minutes after the administration of 50 mg/kg) is on record as 7.08±0.03.
